Results from patent US4393225A, “AI-77 Compounds and pharmaceutically acceptable salts thereof” (Asahi Kasei Kogyo Kabushiki Kaisha, priority 1979, dated 1983).

System: ulcer
Assay: Anti-ulcer test (restraint and water immersion ulcer in rats, i.p.)
Format: in vivo, Male Wistar rats
Settings: Rattus norvegicus, ip, read-out: % Inhibition of Ulcer
Summary of the method: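 Male Wistar rats (~150 g), fasted 24 h, dosed i.p. with compound in physiological saline; 1 h later restrained and immersed to xiphisternum in 21 °C water for 6 h. Stomachs examined microscopically, ulcers scored 0–3, and percent inhibition calculated.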

Row | Structure (SMILES) | inhibition in vivo at 50 mg/kg
1 | CC(C)CC(NC(=O)C(OC(=O)C(Cl)(Cl)Cl)C1OC(=O)CC1N)C1Cc2cccc(OC(=O)C(Cl)(Cl)Cl)c2C(=O)O1 (stereo not shown) [IIIa-11-4] | 56%
2 | CC(C)CC(NC(=O)C(O)C1OC(=O)CC1N)C1Cc2cccc(OCCCBr)c2C(=O)O1 (stereo not shown) [IIIa-13-19] | 100%

Same assay, conditions: Rattus norvegicus, ip; 50 mg/kg i.p.; read-out: % Inhibition of Ulcer

Row | Structure (SMILES) | inhibition in vivo at 50 mg/kg
3 | CCOc1cccc2c1C(=O)OC(C(CC(C)C)NC(=O)C(OC(C)=O)C1OC(=O)CC1NC(=O)CC(C)C)C2 (stereo not shown) [IIIa-6-3] | 33%
4 | CCCCCCCCCCCCCCCCCC(=O)NC1CC(=O)OC1C(OC(C)=O)C(=O)NC(CC(C)C)C1Cc2cccc(OCC)c2C(=O)O1 (stereo not shown) [IIIa-6-4] | 22%
5 | CCCCCCCCC=CCCCCCCCC(=O)NC1CC(=O)OC1C(OC(C)=O)C(=O)NC(CC(C)C)C1Cc2cccc(OCC)c2C(=O)O1 (stereo not shown) [IIIa-6-5] | 22%
6 | CCCCCCCCCCCCCCCCCCOc1cccc2c1C(=O)OC(C(CC(C)C)NC(=O)C(OC(C)=O)C1OC(=O)CC1NC(=O)C1CCCO1)C2 (stereo not shown) [IIIa-6-6] | 33%
7 | CCOc1cccc2c1C(=O)OC(C(CC(C)C)NC(=O)C(OC(C)=O)C1OC(=O)CC1NC(=O)CC(C)OC)C2 (stereo not shown) [IIIa-6-7] | 33%
8 | CCOc1cccc2c1C(=O)OC(C(CC(C)C)NC(=O)C(OC(C)=O)C1OC(=O)CC1NC(=O)c1ccc(C)cc1)C2 (stereo not shown) [IIIa-6-8] | 22%
9 | CCOc1cccc2c1C(=O)OC(C(CC(C)C)NC(=O)C(OC(C)=O)C1OC(=O)CC1NC(=O)c1ccc(OCCC(C)C)cc1)C2 (stereo not shown) [IIIa-6-9] | 22%
10 | CCC(=O)OC(C(=O)NC(CC(C)C)C1Cc2cccc(OCC3CCCCC3)c2C(=O)O1)C1OC(=O)CC1NC(C)=O (stereo not shown) [IIIa-6-10] | 33%
11 | CCCC(=O)NC1CC(=O)OC1C(OC(=O)CCC)C(=O)NC(CC(C)C)C1Cc2cccc(OCc3ccco3)c2C(=O)O1 (stereo not shown) [IIIa-6-11] | 33%
12 | CCC(=O)OC(C(=O)NC(CC(C)C)C1Cc2cccc(OC)c2C(=O)O1)C1OC(=O)CC1NC(C)=O (stereo not shown) [IIIa-6-12] | 33%
13 | CCOc1cccc2c1C(=O)OC(C(CC(C)C)NC(=O)C(OC(=O)CC)C1OC(=O)CC1NC(=O)C(Cl)(Cl)Cl)C2 (stereo not shown) [IIIa-6-13] | 33%
14 | CCOc1cccc2c1C(=O)OC(C(CC(C)C)NC(=O)C(OC)C1OC(=O)CC1NC(C)=O)C2 (stereo not shown) [IIIa-7-1] | 33%
15 | CCOc1cccc2c1C(=O)OC(C(CC(C)C)NC(=O)C(OCC)C1OC(=O)CC1NC(C)=O)C2 (stereo not shown) [IIIa-7-2] | 33%
16 | CCOc1cccc2c1C(=O)OC(C(CC(C)C)NC(=O)C(OCC)C1OC(=O)CC1NC(=O)CC(C)C)C2 (stereo not shown) [IIIa-7-3] | 33%
17 | CCCCCCCCCCCCCCCCCC(=O)NC1CC(=O)OC1C(OCC)C(=O)NC(CC(C)C)C1Cc2cccc(OCCCCCCC)c2C(=O)O1 (stereo not shown) [IIIa-7-4] | 22%
18 | CCCCCCCCC=CCCCCCCCC(=O)NC1CC(=O)OC1C(OCC)C(=O)NC(CC(C)C)C1Cc2cccc(OCC)c2C(=O)O1 (stereo not shown) [IIIa-7-5] | 22%
19 | CCOc1cccc2c1C(=O)OC(C(CC(C)C)NC(=O)C(OC)C1OC(=O)CC1NC(=O)C1CCCO1)C2 (stereo not shown) [IIIa-7-6] | 22%
20 | CCOc1cccc2c1C(=O)OC(C(CC(C)C)NC(=O)C(OC)C1OC(=O)CC1NC(=O)CC(C)OC)C2 (stereo not shown) [IIIa-7-7] | 33%
21 | CCCCOC(C(=O)NC(CC(C)C)C1Cc2cccc(OCC)c2C(=O)O1)C1OC(=O)CC1NC(=O)c1ccc(C)cc1 (stereo not shown) [IIIa-7-8] | 22%
22 | CCOc1cccc2c1C(=O)OC(C(CC(C)C)NC(=O)C(OC)C1OC(=O)CC1NC(=O)c1ccc(OCCC(C)C)cc1)C2 (stereo not shown) [IIIa-7-9] | 22%
23 | CCCCOC(C(=O)NC(CC(C)C)C1Cc2cccc(OC)c2C(=O)O1)C1OC(=O)CC1NC(=O)CCC (stereo not shown) [IIIa-7-10] | 33%

Row | Structure (SMILES) | inhibition in vivo at 50 mg/kg
24 | CCCC(=O)NC1CC(=O)OC1C(OC(C)C)C(=O)NC(CC(C)C)C1Cc2cccc(OCc3ccccc3)c2C(=O)O1 (stereo not shown) [IIIa-7-11] | 33%
25 | CCCC(=O)NC1CC(=O)OC1C(OC(C)C)C(=O)NC(CC(C)C)C1Cc2cccc(OCC3CCCCC3)c2C(=O)O1 (stereo not shown) [IIIa-7-12] | 33%
26 | CCCC(=O)NC1CC(=O)OC1C(OC)C(=O)NC(CC(C)C)C1Cc2cccc(OCc3ccc4ccccc4c3)c2C(=O)O1 (stereo not shown) [IIIa-7-13] | 33%
27 | CCCC(=O)NC1CC(=O)OC1C(OC)C(=O)NC(CC(C)C)C1Cc2cccc(OCC3CCCCO3)c2C(=O)O1 (stereo not shown) [IIIa-7-14] | 33%
28 | CCCCCC(=O)OC(C)CCOc1cccc2c1C(=O)OC(C(CC(C)C)NC(=O)C(OC)C1OC(=O)CC1NC(=O)CCC)C2 (stereo not shown) [IIIa-7-15] | 33%
29 | CCCCOc1cccc2c1C(=O)OC(C(CC(C)C)NC(=O)C(OC)C1OC(=O)CC1NC(C)=O)C2 (stereo not shown) [IIIa-7-16] | 33%
30 | CCCOC(C(=O)NC(CC(C)C)C1Cc2cccc(OCC)c2C(=O)O1)C1OC(=O)CC1NC(=O)C(Cl)(Cl)Cl (stereo not shown) [IIIa-7-17] | 33%
31 | CCCCOC(C(=O)NC(CC(C)C)C1Cc2cccc(O)c2C(=O)O1)C1OC(=O)CC1NC(C)=O (stereo not shown) [IIIa-8-1] | 56%
32 | CCCCCCCCC=CCCCCCCCC(=O)OC(C(=O)NC(CC(C)C)C1Cc2cccc(OC(=O)CC)c2C(=O)O1)C1OC(=O)CC1N (stereo not shown) [IIIa-11-5] | 44%
33 | CCCC(=O)Oc1cccc2c1C(=O)OC(C(CC(C)C)NC(=O)C(OC(C)=O)C1OC(=O)CC1N)C2 (stereo not shown) [IIIa-11-6] | 56%
34 | CC(=O)Oc1cccc2c1C(=O)OC(C(CC(C)C)NC(=O)C(O)C1OC(=O)CC1N)C2 (stereo not shown) [IIIa-12-1] | 78%
35 | CC(C)CC(NC(=O)C(O)C1OC(=O)CC1N)C1Cc2cccc(OC(=O)C(C)C)c2C(=O)O1 (stereo not shown) [IIIa-12-2] | 78%
36 | CCCCCCCCCCCCCCCCCC(=O)Oc1cccc2c1C(=O)OC(C(CC(C)C)NC(=O)C(O)C1OC(=O)CC1N)C2 (stereo not shown) [IIIa-12-3] | 66%
37 | CCCCCCCCC=CCCCCCCCC(=O)Oc1cccc2c1C(=O)OC(C(CC(C)C)NC(=O)C(O)C1OC(=O)CC1N)C2 (stereo not shown) [IIIa-12-4] | 72%
38 | CC(C)CC(NC(=O)C(O)C1OC(=O)CC1N)C1Cc2cccc(OC(=O)C3CCCO3)c2C(=O)O1 (stereo not shown) [IIIa-12-5] | 78%
39 | COC(C)CC(=O)Oc1cccc2c1C(=O)OC(C(CC(C)C)NC(=O)C(O)C1OC(=O)CC1N)C2 (stereo not shown) [IIIa-12-6] | 78%
40 | Cc1ccc(C(=O)Oc2cccc3c2C(=O)OC(C(CC(C)C)NC(=O)C(O)C2OC(=O)CC2N)C3)cc1 (stereo not shown) [IIIa-12-7] | 78%
41 | CC(C)CCOc1ccc(C(=O)Oc2cccc3c2C(=O)OC(C(CC(C)C)NC(=O)C(O)C2OC(=O)CC2N)C3)cc1 (stereo not shown) [IIIa-12-8] | 72%
42 | CC(C)CC(NC(=O)C(O)C1OC(=O)CC1N)C1Cc2cccc(OC(=O)C(Cl)(Cl)Cl)c2C(=O)O1 (stereo not shown) [IIIa-12-9] | 66%
43 | COc1cccc2c1C(=O)OC(C(CC(C)C)NC(=O)C(O)C1OC(=O)CC1N)C2 (stereo not shown) [IIIa-13-1] | 100%
44 | CCOc1cccc2c1C(=O)OC(C(CC(C)C)NC(=O)C(O)C1OC(=O)CC1N)C2 (stereo not shown) [IIIa-13-2] | 94%

Row | Structure (SMILES) | inhibition in vivo at 50 mg/kg
45 | CCCCOc1cccc2c1C(=O)OC(C(CC(C)C)NC(=O)C(O)C1OC(=O)CC1N)C2 (stereo not shown) [IIIa-13-3] | 100%
46 | CC(C)CCOc1cccc2c1C(=O)OC(C(CC(C)C)NC(=O)C(O)C1OC(=O)CC1N)C2 (stereo not shown) [IIIa-13-4] | 100%
47 | CCCCCCCCCCCCCCCCCCOc1cccc2c1C(=O)OC(C(CC(C)C)NC(=O)C(O)C1OC(=O)CC1N)C2 (stereo not shown) [IIIa-13-5] | 72%
48 | CC(C)CC(NC(=O)C(O)C1OC(=O)CC1N)C1Cc2cccc(OCCCl)c2C(=O)O1 (stereo not shown) [IIIa-13-6] | 94%
49 | CCCCCCCCC=CCCCCCCCCOc1cccc2c1C(=O)OC(C(CC(C)C)NC(=O)C(O)C1OC(=O)CC1N)C2 (stereo not shown) [IIIa-13-7] | 72%
50 | CC(C)CC(NC(=O)C(O)C1OC(=O)CC1N)C1Cc2cccc(OCc3ccccc3)c2C(=O)O1 (stereo not shown) [IIIa-13-9] | 89%
51 | CC(C)CC(NC(=O)C(O)C1OC(=O)CC1N)C1Cc2cccc(OC3CC3)c2C(=O)O1 (stereo not shown) [IIIa-13-10] | 94%
52 | CC(C)CC(NC(=O)C(O)C1OC(=O)CC1N)C1Cc2cccc(OCC3CCCCC3)c2C(=O)O1 (stereo not shown) [IIIa-13-11] | 78%
53 | CC(C)CC(NC(=O)C(O)C1OC(=O)CC1N)C1Cc2cccc(OCCc3ccccc3)c2C(=O)O1 (stereo not shown) [IIIa-13-12] | 89%
54 | CC(C)CC(NC(=O)C(O)C1OC(=O)CC1N)C1Cc2cccc(OCc3ccco3)c2C(=O)O1 (stereo not shown) [IIIa-13-13] | 89%
55 | CC(C)CC(NC(=O)C(O)C1OC(=O)CC1N)C1Cc2cccc(OCC3CCCO3)c2C(=O)O1 (stereo not shown) [IIIa-13-14] | 89%
56 | CC(C)CC(NC(=O)C(O)C1OC(=O)CC1N)C1Cc2cccc(OCCC3CCCCO3)c2C(=O)O1 (stereo not shown) [IIIa-13-15] | 94%
57 | CC(=O)N1CCC(COc2cccc3c2C(=O)OC(C(CC(C)C)NC(=O)C(O)C2OC(=O)CC2N)C3)CC1 (stereo not shown) [IIIa-13-16] | 89%
58 | CC(C)CC(NC(=O)C(O)C1OC(=O)CC1N)C1Cc2cccc(OCc3ccc4ccccc4c3)c2C(=O)O1 (stereo not shown) [IIIa-13-17] | 72%
59 | CC(C)CC(NC(=O)C(O)C1OC(=O)CC1N)C1Cc2cccc(OCCc3ccc4ccccc4c3)c2C(=O)O1 (stereo not shown) [IIIa-13-18] | 72%
60 | CCC(=O)COc1cccc2c1C(=O)OC(C(CC(C)C)NC(=O)C(O)C1OC(=O)CC1N)C2 (stereo not shown) [IIIa-13-20] | 100%
61 | Cc1ccc(COc2cccc3c2C(=O)OC(C(CC(C)C)NC(=O)C(O)C2OC(=O)CC2N)C3)cc1 (stereo not shown) [IIIa-13-21] | 89%
62 | COc1ccc(COc2cccc3c2C(=O)OC(C(CC(C)C)NC(=O)C(O)C2OC(=O)CC2N)C3)cc1 (stereo not shown) [IIIa-13-23] | 72%
63 | CCOc1cccc2c1C(=O)OC(C(CC(C)C)NC(=O)C(OC(C)=O)C1OC(=O)CC1N)C2 (stereo not shown) [IIIa-14-1] | 56%
64 | CCOc1cccc2c1C(=O)OC(C(CC(C)C)NC(=O)C(OC(=O)C(C)C)C1OC(=O)CC1N)C2 (stereo not shown) [IIIa-14-2] | 56%
